The source of these data is patent US11358967B2 (Boehringer Ingelheim International GmbH, priority 2016, dated 2022).

In the test the target is T1, RORγ (Homo sapiens, UniProt P51449).
T1 construct: expressed in transfected cells; host or cells: HEK 293 cells, transiently transfected
T1 sequence (P51449 269-508 limits assumed): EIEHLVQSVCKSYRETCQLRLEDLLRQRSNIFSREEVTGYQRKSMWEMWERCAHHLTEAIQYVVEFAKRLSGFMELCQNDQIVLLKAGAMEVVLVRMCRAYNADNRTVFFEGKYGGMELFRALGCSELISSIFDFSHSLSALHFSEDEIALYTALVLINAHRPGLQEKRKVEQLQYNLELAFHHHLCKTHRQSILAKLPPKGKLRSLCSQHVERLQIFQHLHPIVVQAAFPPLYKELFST
The test is described as follows: Reporter Gene Assay (RGA): RORγ transactivation of a luciferase reporter in transiently transfected HEK 293 cells. Type of test: cell-based. As to conditions: HEK 293 cells cotransfected with pGL4.3 luc2P/GAL4UAS and pBIND Gal4DBD hRORC LBD; 20-24 h incubation; luciferase readout. Here is the method:
Reporter Gene Assay (RGA)
A nuclear receptor transactivation assay is performed to quantitate the ability of test compounds to inhibit RORγ transactivation of a luciferase reporter. […] The system uses transiently transfected HEK 293 cells cotransfected with two plasmids (pGL4.3, luc2P/GAL4UAS/Hygro, and pBIND, Gal4DBD hRORC LBD1-3). The positive control is co-transiently transfected with both plasmids, and the negative control contains the pGL4.3 promoter sequence. Assays are assembled in 384 well plates where transiently transfected cells and test compound at varying concentrations are incubated for 20-24 h. The next day, assays plates are taken out and equilibrated at RT for 20-30 minutes. Bright-Glo™ Luciferase Assay System is used to detect Luciferase production. After addition of Bright GLO detection reagent, the plates are incubated at RT for 20 minutes. The plates are read on an Envision plate reader to measure luminescence signal. The RLU signal is converted to POC relative to control and blank wells.
Compound Dilution Buffer:
Bright Glo Luciferase Assay System: Promega #E2620
Thaw lysis buffer provided in kit, add 100 mL lysis buffer to substrate powder.
(In general: In a reporter assay the amount or activity of a reporter protein is the signal.)
As usually defined, the IC50 is the concentration needed to halve the response being measured. Low readings indicate greater potency, high ones weaker potency. `CCS(=O)(=O)c1ccc(CNc2nc3ncc(-c4c(OC)ncnc4C4CC4)nc3n([C@@H](C)C3CC3)c2=O)nc1` [Example 3]: the concentration for half-maximal inhibition (IC50) stood at 149 nM.

`CCS(=O)(=O)c1ccc(CNc2nc3ncc(-c4c(C)ncnc4C4CC4)nc3n([C@@H](C)C3CC3)c2=O)nc1` [Example 4] gave a concentration for half-maximal inhibition (IC50) of 269 nM. `CCS(=O)(=O)c1ccc(CNc2nc3ncc(-c4c(C)nc(N)nc4C4CC4)nc3n([C@@H](C)C3CC3)c2=O)nc1` [Example 5] showed a half-maximal inhibitory concentration (IC50) of 274 nM. The compound `CCS(=O)(=O)c1ccc(CNc2nc3ncc(-c4nccnc4C4CC4)nc3n([C@@H](C)C3CC3)c2=O)nc1` [Example 6] had a concentration for half-maximal inhibition (IC50) of 454 nM. `CC[C@H](C)n1c(=O)c(NCc2ccc(S(=O)(=O)CC)cn2)nc2ncc(-c3c(OC)ncnc3C3CC3)nc21` [Example 7] showed an IC50 of 210 nM. Compared with the last compound, the IC50 is about 2.2-fold lower. For `CC[C@H](C)n1c(=O)c(NCc2ccc(S(=O)(=O)CC)cn2)nc2ncc(-c3c(C)ncnc3C3CC3)nc21` [Example 8] the value was 338 nM; for `CC[C@H](C)n1c(=O)c(NCc2ccc(S(C)(=O)=O)cn2)nc2ncc(-c3c(C)ncnc3C3CC3)nc21` [Example 9], 1330 nM; for `CC[C@H](C)n1c(=O)c(NCc2ccc(S(=O)(=O)CC)nc2)nc2ncc(-c3c(C)ncnc3C3CC3)nc21` [Example 10], 2740 nM. The value for `CCS(=O)(=O)c1ccc(CNc2nc3nnc(-c4c(C)ncnc4C4CC4)cc3n([C@@H](C)C3CC3)c2=O)nc1` [Example 12] was 2900 nM.
